Reference: patent publication US4430343A, “Benzimidazole derivatives, process for the preparation thereof and pharmaceutical composition containing the same” (Kanebo, Ltd., priority 1981, dated 1984)
Where a name gives a salt, the structure may show the parent alone.

How the values were obtained:
[1] = in vivo; details: mouse, ddY male mice, oral, observed one week, Weil's method, read-out: Acute toxicity LD50
Protocol: The same compounds as used in the above protecting activity against histamine were used.
The LD50 was calculated based on the number of dead mice within one week according to Weil's method.

[2] = tested on: histamine-induced lethality; assay: Protecting activity against histamine-induced lethality (method similar to Labell & Tislow); assay type: in vivo, Hartley strain male guinea pigs; details: for ED50: Cavia porcellus, guinea pigs, oral, 1 hour before histamine 1.1 mg/kg into cephalic vein, survival after two hours, probit method; for protecting activity against histamine-induced lethality in comparison with that of the compounds of the present invention: relative to compounds of the present invention
Protocol: 1. Protecting activity against histamine-induced lethality
(3) Homochlorcyclizine hydrochloride (reference compound)
The test was carried out by a method similar to Labell & Tislow method (cf. J. Pharmacol Exp. Ther., 113, 72, 1955). […] After one hour, histamine (1.1 mg/kg, in a physiological saline solution) was injected to the animals in cephalic vein. After two hours, the number of live guinea pigs was counted, and therefrom ED50 of the compounds was calculated according to probit method.

[3] = tested on: hexobarbital-induced sleep; assay: Potentiating effect on hexobarbital-induced sleep in mice; assay type: in vivo
Description: Besides, the conventional antihistaminics have side-effect such as hypnotic activity.

Structure (SMILES) | LD50 at 168 h [1] | ED50 [2] | protecting activity against histamine-induced lethality in comparison with that of the compounds of the present invention [2] | potentiating effect on hexobarbital-induced sleep ([3]; 50 mg/kg (p.o.)) | potentiating effect on hexobarbital-induced sleep ([3]; 25 mg/kg (p.o.))
C#CCOCCn1c(N2CCCN(C)CC2)nc2ccccc21 [Example 1, 1-[2-(propargyloxy)ethyl]-2-(4-methyl-1-homopiperazinyl)benzimidazole difumarate] | 990 mg/kg | 0.0046 mg/kg |  |  | 
CN1CCN(c2nc3ccccc3n2Cc2ccccc2)CC1 [1-benzyl-2-(4-methyl-1-piperazinyl)benzimidazole, reference compound] |  |  | about one severals to one tenth or less |  | 
C=CCOCCn1c(N2CCCN(C)CC2)nc2ccccc21 [Example 6, 1-[2-(allyloxy)ethyl]-2-(4-methyl-1-homopiperazinyl)benzimidazole difumarate] | 904 mg/kg | 0.0088 mg/kg |  |  | 
CCOCCn1c(N2CCNCC2)nc2ccccc21 [Example 8, 1-[2-(ethoxy)ethyl]-2-(1-piperazinyl)benzimidazole.3/2 fumarate] | 2220 mg/kg | 0.011 mg/kg |  | did not show such potentiating effect | 
CCCOCCn1c(N2CCCN(C)CC2)nc2ccccc21 [Example 7, 1-[2-(n-propoxy)ethyl]-2-(4-methyl-1-homopiperazinyl)benzimidazole difumarate] | 884 mg/kg | 0.0095 mg/kg |  |  | 
CCCOCCn1c(N2CCN(C)CC2)nc2ccccc21 [Example 11, 1-[2-(n-propoxy)ethyl]-2-(4-methyl-1-piperazinyl)benzimidazole.3/2 fumarate] | 2300 mg/kg | 0.015 mg/kg |  |  | 
CCOCCn1c(N2CCN(CC)CC2)nc2ccccc21 [Example 9, 1-[2-(ethoxy)ethyl]-2-(4-ethyl-1-piperazinyl)benzimidazole.3/2 fumarate] | 2640 mg/kg | 0.013 mg/kg |  | did not show such potentiating effect | 
CN1CCN(c2nc3ccccc3n2CCOc2ccccc2)CC1 [Example 12, 1-[2-(phenoxy)ethyl]-2-(4-methyl-1-piperazinyl)benzimidazole.3/2 fumarate] | 1110 mg/kg | 0.017 mg/kg |  |  | 
C#CCOCCn1c(N2CCN(C)CC2)nc2ccccc21 [Example 2, 1-[2-(propargyloxy)ethyl]-2-(4-methyl-1-piperazinyl)benzimidazole.3/2fumarate] | 818 mg/kg | 0.0047 mg/kg |  | did not show such potentiating effect | 
CN1CCCN(c2nc3ccccc3n2CCOc2ccccc2)CC1 [Example 10, 1-[2-(phenoxy)ethyl]-2-(4-methyl-1-homopiperazinyl)benzimidazole difumarate] | 1010 mg/kg | 0.014 mg/kg |  |  | 
CCOCCn1c(N2CCN(C)CC2)nc2ccccc21 [Example 5, 1-[2-(ethoxy)ethyl]-2-(4-methyl-1-piperazinyl)benzimidazole.3/2 fumarate] | 1490 mg/kg | 0.007 mg/kg |  |  | 
CN1CCCN(C(c2ccccc2)c2ccc(Cl)cc2)CC1 (stereo not shown) [Homochlorcyclizine hydrochloride, reference compound] | 382 mg/kg | 0.26 mg/kg |  |  | remarkable potentiating effect
C=CCOCCn1c(N2CCN(C)CC2)nc2ccccc21 [Example 4, 1-[2-(allyloxy)ethyl]-2-(4-methyl-1-piperazinyl)benzimidazole.3/2 fumarate] | 1640 mg/kg | 0.0058 mg/kg |  |  | 
CN1CCN(c2nc3ccccc3n2C)CC1 [1-methyl-2-(4-methyl-1-piperazinyl)benzimidazole, reference compound] |  |  | about one severals to one tenth or less |  | 
CCOCCn1c(N2CCCN(C)CC2)nc2ccccc21 [Example 3, 1-[2-(ethoxy)ethyl]-2-(4-methyl-1-homopiperazinyl)benzimidazole.difumarate] | 628 mg/kg | 0.0047 mg/kg |  | did not show such potentiating effect | 
CN1CCN(c2nc3ccccc3[nH]2)CC1 [2-(4-methyl-1-piperazinyl)benzimidazole, reference compound] |  |  | about one severals to one tenth or less |  | 
